These results are taken from ChEMBL document CHEMBL1150320, “Novel ORL1-selective antagonists with oral bioavailability and brain penetrability” (Bioorg Med Chem Lett, 2008).

Series [1] can be described thus: Metabolic stability in human liver microsomes assessed as drug remaining after 30 mins. Particulars: read-out: Stability. The format is ADME, Microsome. Background: Liver microsomes are a subcellular fraction often used to study metabolism.
For series [2], the target named is T1, Nociceptin receptor (Homo sapiens, UniProt P41146). As to the kind of experiment: Displacement of [125I]Tyr14-NC/OFQ from human ORL1 receptor. (In general: Loss of bound radioactivity is the signal in a displacement assay; it reports binding, not function.)
Series [3] has as its target T1, Nociceptin receptor. As to the kind of experiment: Antagonist activity at human ORL1 receptor by [35S]GTPgammaS binding assay. Type of series: functional.
The target of series [4] is T2, Mu-type opioid receptor (Homo sapiens, UniProt P35372). As to the kind of experiment: Displacement of [3H]diprenorphin from human mu opioid receptor expressed in CHO cell membrane. Type of series: cell membranes.
Series [5] concerns the target T3, Kappa-type opioid receptor (Homo sapiens, UniProt P41145). Briefly: Displacement of [3H]U-69593 from human kappa opioid receptor expressed in CHO cell membrane. Type of series: cell membranes.
For series [6], the target named is T4, Delta-type opioid receptor (Homo sapiens, UniProt P41143). Briefly: Displacement of [3H]naltrindole from human delta opioid receptor expressed in CHO cell membrane. The format is cell membranes.
Series [7] has as its target T2, Mu-type opioid receptor. As to the kind of experiment: Agonist activity at human mu opioid receptor expressed in CHO cell membrane by [35S]GTPgammaS binding assay. The format is functional, cell membranes.
Series [8] concerns the target T3, Kappa-type opioid receptor. As to the kind of experiment: Agonist activity at human kappa opioid receptor expressed in CHO cell membrane by [35S]GTPgammaS binding assay. Background: Binding of GTPγS marks nucleotide exchange on a G protein.
Series [9] has as its target T4, Delta-type opioid receptor. As to the kind of experiment: Agonist activity at human delta opioid receptor expressed in CHO cell membrane by [35S]GTPgammaS binding assay. Type of series: functional, cell membranes.
Series [10] addresses Synaptic vesicular amine transporter (Homo sapiens) (UniProt Q05940). As to the kind of experiment: Inhibition of monoamine transporter at 10 uM.
The next series addresses hERG (KCNH2) (Homo sapiens, UniProt Q12809). Briefly: Inhibition of human ERG at 10 uM.
Series [11] addresses 5-hydroxytryptamine receptor 2B (Homo sapiens) (UniProt P41595). As to the kind of experiment: Inhibition of 5HT2B receptor at 10 uM.
A short description of series [12]: Inhibition of sodium channel site 2 at 10 uM.
Series [13] is described as follows: Bioavailability in ICR mouse at 3 mg/kg, po and 1 mg/kg, iv. The format is ADME, organism-based. Particulars: in vivo.
A short description of series [14]: Bioavailability in Sprague-Dawley rat at 3 mg/kg, po and 1 mg/kg, iv. Type of series: ADME, organism-based. Particulars: in vivo.
Series [15] is described as follows: Bioavailability in rhesus monkey at 3 mg/kg, po and 1 mg/kg, iv. Type of series: ADME, organism-based, Macaca mulatta. Particulars: in vivo.
The nature of series [16]: Half life in ICR mouse at 3 mg/kg, po and 1 mg/kg, iv. The format is ADME, organism-based. Particulars: in vivo.
Series [17] in a line: Half life in Sprague-Dawley rat at 3 mg/kg, po and 1 mg/kg, iv. Type of series: ADME, organism-based. Particulars: in vivo.
Series [18] can be described thus: Half life in rhesus monkey at 3 mg/kg, po and 1 mg/kg, iv. Type of series: ADME, organism-based, Macaca mulatta. Particulars: in vivo.
Series [19] in a line: Clearance in ICR mouse at 3 mg/kg, po and 1 mg/kg, iv. The format is ADME, organism-based. Particulars: in vivo.
The nature of series [20]: Clearance in Sprague-Dawley rat at 3 mg/kg, po and 1 mg/kg, iv. Type of series: ADME, organism-based. Particulars: in vivo.
The nature of series [21]: Clearance in rhesus monkey at 3 mg/kg, po and 1 mg/kg, iv. The format is ADME, organism-based, Macaca mulatta. Particulars: in vivo.
Series [22] is described as follows: Ratio of drug level in brain to plasma in ICR mouse at 30 mg/kg, po after 60 mins. Type of series: ADME, organism-based. Details: dose 30 mg/kg, route oral. Particulars: read-out: BPR.
Another series has as its system Mus musculus. As to the kind of experiment: Biodistribution in ICR mouse brain at 30 mg/kg, po after 60 mins. The format is ADME, organism-based. On the set-up: dose 30 mg/kg, route oral. Particulars: in vivo, 1 h.
Series [23] can be described thus: Biodistribution in ICR mouse plasma at 30 mg/kg, po after 60 mins. Type of series: ADME, organism-based. On the set-up: dose 30 mg/kg, route oral. Particulars: read-out: Drug uptake.

T1 sequence (P41146 whole entry): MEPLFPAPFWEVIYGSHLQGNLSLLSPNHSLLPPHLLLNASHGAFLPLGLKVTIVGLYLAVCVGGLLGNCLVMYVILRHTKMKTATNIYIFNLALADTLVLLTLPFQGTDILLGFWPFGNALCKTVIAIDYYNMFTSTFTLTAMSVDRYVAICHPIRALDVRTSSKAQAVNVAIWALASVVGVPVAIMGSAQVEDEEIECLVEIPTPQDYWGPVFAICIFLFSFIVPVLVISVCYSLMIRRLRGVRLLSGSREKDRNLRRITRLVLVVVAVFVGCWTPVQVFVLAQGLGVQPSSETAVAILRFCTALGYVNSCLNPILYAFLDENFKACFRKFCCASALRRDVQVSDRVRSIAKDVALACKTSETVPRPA
T2 sequence (P35372 whole entry): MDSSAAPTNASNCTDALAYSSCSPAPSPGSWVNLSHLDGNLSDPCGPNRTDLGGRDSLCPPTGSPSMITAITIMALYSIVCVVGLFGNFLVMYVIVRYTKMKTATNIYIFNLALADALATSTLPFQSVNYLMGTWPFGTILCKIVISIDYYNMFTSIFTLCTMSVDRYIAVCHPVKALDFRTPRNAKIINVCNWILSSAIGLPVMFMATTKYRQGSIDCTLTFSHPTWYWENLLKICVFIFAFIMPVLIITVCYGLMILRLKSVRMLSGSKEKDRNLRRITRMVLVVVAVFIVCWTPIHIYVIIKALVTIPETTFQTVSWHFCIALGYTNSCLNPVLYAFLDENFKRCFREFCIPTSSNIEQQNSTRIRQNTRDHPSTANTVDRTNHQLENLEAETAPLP
T3 sequence (P41145 whole entry): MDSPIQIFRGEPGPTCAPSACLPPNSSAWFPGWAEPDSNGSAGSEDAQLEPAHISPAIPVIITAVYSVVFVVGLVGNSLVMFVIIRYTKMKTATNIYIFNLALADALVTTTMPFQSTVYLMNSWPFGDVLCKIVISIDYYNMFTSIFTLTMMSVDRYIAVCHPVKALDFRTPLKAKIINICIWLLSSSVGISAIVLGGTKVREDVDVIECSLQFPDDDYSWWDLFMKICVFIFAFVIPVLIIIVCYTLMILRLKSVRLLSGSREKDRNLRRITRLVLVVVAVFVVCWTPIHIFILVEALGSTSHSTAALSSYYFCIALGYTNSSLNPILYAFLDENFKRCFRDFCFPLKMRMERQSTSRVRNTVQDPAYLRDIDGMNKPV
T4 sequence (P41143 whole entry): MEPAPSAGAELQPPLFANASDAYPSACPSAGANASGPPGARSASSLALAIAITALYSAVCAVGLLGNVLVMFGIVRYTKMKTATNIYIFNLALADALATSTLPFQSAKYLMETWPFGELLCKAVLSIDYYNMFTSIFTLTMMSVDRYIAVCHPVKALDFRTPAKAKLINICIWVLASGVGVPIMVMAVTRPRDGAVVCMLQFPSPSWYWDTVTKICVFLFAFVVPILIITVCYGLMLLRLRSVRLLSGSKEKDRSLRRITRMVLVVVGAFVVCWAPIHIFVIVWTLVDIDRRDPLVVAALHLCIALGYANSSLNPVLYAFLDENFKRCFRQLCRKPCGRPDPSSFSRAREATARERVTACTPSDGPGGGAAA
Chain of Synaptic vesicular amine transporter (Homo sapiens) (Q05940 whole entry): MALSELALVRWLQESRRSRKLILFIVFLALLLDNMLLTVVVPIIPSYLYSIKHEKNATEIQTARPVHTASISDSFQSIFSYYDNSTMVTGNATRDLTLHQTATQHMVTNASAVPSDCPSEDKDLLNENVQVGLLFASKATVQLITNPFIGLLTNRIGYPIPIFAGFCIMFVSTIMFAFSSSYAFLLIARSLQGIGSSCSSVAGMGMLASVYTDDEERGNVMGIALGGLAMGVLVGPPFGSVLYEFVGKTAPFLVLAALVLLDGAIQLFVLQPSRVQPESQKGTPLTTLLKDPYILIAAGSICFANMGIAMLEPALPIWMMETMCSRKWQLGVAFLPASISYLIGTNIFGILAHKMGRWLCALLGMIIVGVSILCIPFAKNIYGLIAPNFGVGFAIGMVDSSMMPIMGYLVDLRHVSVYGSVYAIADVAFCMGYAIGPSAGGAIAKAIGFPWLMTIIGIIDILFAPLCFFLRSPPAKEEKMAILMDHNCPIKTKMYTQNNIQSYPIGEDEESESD
Chain of hERG (KCNH2) (Q12809 whole entry): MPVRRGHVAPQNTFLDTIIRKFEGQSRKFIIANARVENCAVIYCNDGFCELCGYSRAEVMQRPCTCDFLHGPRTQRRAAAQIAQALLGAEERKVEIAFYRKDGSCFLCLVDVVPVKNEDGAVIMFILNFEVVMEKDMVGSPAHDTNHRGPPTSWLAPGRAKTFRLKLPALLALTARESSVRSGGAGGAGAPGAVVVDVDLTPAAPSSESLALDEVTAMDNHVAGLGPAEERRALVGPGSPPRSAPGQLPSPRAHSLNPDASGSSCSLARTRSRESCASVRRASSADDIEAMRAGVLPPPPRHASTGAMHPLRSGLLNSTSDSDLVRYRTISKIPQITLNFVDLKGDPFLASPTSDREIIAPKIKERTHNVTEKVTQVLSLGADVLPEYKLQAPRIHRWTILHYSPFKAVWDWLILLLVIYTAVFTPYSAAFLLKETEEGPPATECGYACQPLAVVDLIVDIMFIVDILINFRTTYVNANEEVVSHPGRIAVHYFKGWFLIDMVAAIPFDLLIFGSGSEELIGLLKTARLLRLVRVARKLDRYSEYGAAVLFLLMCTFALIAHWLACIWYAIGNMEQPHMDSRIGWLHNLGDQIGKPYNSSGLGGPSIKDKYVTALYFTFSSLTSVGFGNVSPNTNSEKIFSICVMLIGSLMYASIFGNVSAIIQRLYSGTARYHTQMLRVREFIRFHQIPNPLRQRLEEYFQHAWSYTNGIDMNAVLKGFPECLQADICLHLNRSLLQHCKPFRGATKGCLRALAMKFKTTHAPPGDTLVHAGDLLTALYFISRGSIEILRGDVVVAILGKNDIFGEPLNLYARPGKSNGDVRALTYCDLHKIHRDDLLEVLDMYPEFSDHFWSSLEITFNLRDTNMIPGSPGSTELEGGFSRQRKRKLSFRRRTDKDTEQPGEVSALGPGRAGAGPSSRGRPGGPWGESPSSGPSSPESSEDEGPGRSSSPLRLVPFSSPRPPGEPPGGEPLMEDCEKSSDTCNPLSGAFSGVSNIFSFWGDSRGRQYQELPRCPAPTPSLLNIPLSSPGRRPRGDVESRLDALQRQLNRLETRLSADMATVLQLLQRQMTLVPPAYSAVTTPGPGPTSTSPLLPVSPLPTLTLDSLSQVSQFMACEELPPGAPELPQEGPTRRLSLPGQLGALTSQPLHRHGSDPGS
Chain of 5-hydroxytryptamine receptor 2B (Homo sapiens) (P41595 whole entry): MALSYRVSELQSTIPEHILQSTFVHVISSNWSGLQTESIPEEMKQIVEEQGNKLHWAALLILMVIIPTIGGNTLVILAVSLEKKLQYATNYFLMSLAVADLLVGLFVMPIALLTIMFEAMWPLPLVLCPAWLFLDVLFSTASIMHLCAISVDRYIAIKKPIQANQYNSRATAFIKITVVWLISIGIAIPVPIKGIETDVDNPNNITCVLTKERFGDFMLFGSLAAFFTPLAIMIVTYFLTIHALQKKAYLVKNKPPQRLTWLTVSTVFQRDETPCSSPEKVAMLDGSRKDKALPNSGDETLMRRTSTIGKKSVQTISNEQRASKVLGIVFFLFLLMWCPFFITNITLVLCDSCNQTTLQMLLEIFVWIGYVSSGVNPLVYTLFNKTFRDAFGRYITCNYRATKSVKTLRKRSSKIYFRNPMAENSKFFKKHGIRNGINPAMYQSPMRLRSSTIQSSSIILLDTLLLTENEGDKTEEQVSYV

As to `CCC(C)(CC)Sc1nc2cc(Cl)c(N3CCN(CCO)CC3)cc2[nH]1`, the remaining at 0.5 h in [1] amounted to 36%.
The term IC50 denotes the point on the concentration scale where inhibition reaches its midpoint. Usually EC50 stands for the concentration at which the effect is half-maximal. As a reminder, the Emax is the greatest response seen or fitted, relative to the assay's reference. `C[C@H]1CN(CCO)CCN1c1cc2[nH]c(SC(C)(C)C)nc2cc1Cl`: the IC50 at Nociceptin receptor [2] was found to be 1.1 nM; on Nociceptin receptor [3], 2.2 nM; at Mu-type opioid receptor [4] it was 67 nM; in series [5], 5.3 nM; in [6], 238 nM; at Mu-type opioid receptor [7], 25 nM. Further, in [1], the remaining at 0.5 h is 70%. For the same molecule, the EC50 was found to be 18 nM in [8] and 14 nM in series [9]. Further, in series [9], the Emax was determined as 94%.
On to `CC(C)(C)Sc1nc2cc(Cl)c(N3CCN(CCO)CC3)cc2[nH]1`, for which the remaining at 0.5 h in series [1] was found to be 71%. Further, in series [6], the IC50 was > 1000 nM.
As to `CCC(CC)Sc1nc2cc(Cl)c(N3CCN(CCO)C(C)(C)C3)cc2[nH]1`, the IC50 on Nociceptin receptor [2] stood at 73 nM; at Nociceptin receptor [3], 59 nM. Besides, the remaining at 0.5 h in [1] came to 7%.
By inhibition is commonly meant the relative decrease from the control value, in per cent. In general, bioavailability refers to the share of a dose that reaches the circulation, judged against a reference dose that is usually intravenous. The half-life is the time in which the quantity being followed falls by half. In the case of `C[C@@H]1CN(CCO)CCN1c1cc2[nH]c(SC(C)(C)C)nc2cc1Cl`, the IC50 was 2.6 nM on Nociceptin receptor [2]; 0.65 nM on Nociceptin receptor [3]; 1900 nM on Mu-type opioid receptor [4]; 120 nM in [5]; > 1000 nM in series [6]; 97 nM on Mu-type opioid receptor [7]. The IC50 in series [8] worked out at 180 nM; in [9], 1200 nM. For the same molecule, the remaining at 0.5 h in [1] was 87%. The figures for the inhibition in series [10], in series [11] and in series [12] were 52%, 52% and 68%, respectively. Besides, at hERG (KCNH2), the inhibition at 10 µM amounted to 86%. Moreover, the figures for the bioavailability in [13], in [14] and in series [15] were 33%, 29% and 37%, respectively. The half-life in series [16] was 48.6 min; in series [17] it was 55.2 min; in series [18] it was 186 min. Also, the clearance in [19] was 121 mL/min/kg; in [20], 81 mL/min/kg; in series [21] it was 20 mL/min/kg. Also, the Kp at 1 h in series [22] was found to be 0.47. This molecule displayed a Drug uptake with Mus musculus of 1.04 µmol/kg. Besides, the concentration at 1 h in series [23] was determined as 2380 nM.
As for `CCC(CC)Sc1nc2cc(Cl)c(N3CCN(CCO)C(C)C3)cc2[nH]1` (racemic), the IC50 at Nociceptin receptor [2] was found to be 8 nM; at Nociceptin receptor [3], 22 nM. In addition, the remaining at 0.5 h in [1] was found to be 17%.
The matching figures for `CCC(CC)Sc1nc2cc(Cl)c(N3C[C@@H]4C[C@H]3CN4CCO)cc2[nH]1`: 18 nM, 27 nM and 63%.
